Source: ChEMBL document CHEMBL3763098, “Induction of apoptosis by cyclobutanones and derived polycyclic -lactones: a preliminary analysis of antiproliferative activity” (Medchemcomm, 2015)
Structures can show the parent of a compound that is named as a salt. Activity calls are given as the source filed them. No cut-off for these calls is given here.

Key:
[1] = Cytotoxicity against human HCT116 cells assessed as inhibition of cell growth after 48 hrs by sulforhodamine B assay; type: functional, cell-based; settings: HCT-116, 48 h
A549 = assay: Cytotoxicity against human A549 cells assessed as inhibition of cell growth after 48 hrs by sulforhodamine B assay; type: functional, cell-based; settings: A549, 48 h
[2] = Cytotoxicity against human PC3 cells assessed as inhibition of cell growth after 48 hrs by sulforhodamine B assay; type: functional, cell-based; settings: PC-3, 48 h
[3] = Cytotoxicity against human THP1 cells assessed as inhibition of cell growth after 48 hrs by sulforhodamine B assay; type: functional, cell-based; settings: THP-1, 48 h
PC-3 [4] = assay: Induction of apoptosis in human PC3 cells assessed as plasma membrane blebbing at IC50 incubated for 12 hrs by DAPI staining based confocal microscopy; type: functional, cell-based
CHO [5] = assay: Induction of apoptosis in CHO cells assessed as early apoptotic cells at 10 uM after 24 hrs by Annexin V-FITC/propidium iodide staining based flow cytometry (reference value: 3%); type: cell-based, Cricetulus griseus; settings: chinese hamster
PC-3 [6] = assay: Induction of apoptosis in human PC3 cells assessed as mitochondrial membrane potential depolarization after 12 hrs using rhodamine 123 by spectrofluorimetric analysis; type: functional, cell-based
PC-3 [7] = assay: Induction of apoptosis in human PC3 cells assessed as plasma membrane blebbing at IC50 incubated for 12 hrs by scanning electron microscopy; type: functional, cell-based
PC-3 [8] = assay: Induction of apoptosis in human PC3 cells assessed as cell shrinkage at IC50 incubated for 12 hrs by DAPI staining based confocal microscopy; type: functional
[9] = Cell cycle arrest in human PC3 cells assessed as accumulation at subG1 phase at 5 uM after 12 hrs by propidium iodide staining based flow cytometry (reference value: 29.6%); type: functional; settings: PC-3
[10] = Induction of apoptosis in CHO cells assessed as viable cells at 10 uM after 24 hrs by Annexin V-FITC/propidium iodide staining based flow cytometry (reference value: 91.8%); type: cell-based, Cricetulus griseus; settings: chinese hamster, read-out: Activity
CHO [11] = assay: Induction of apoptosis in CHO cells assessed as necrotic cells at 10 uM after 24 hrs by Annexin V-FITC/propidium iodide staining based flow cytometry (reference value: 4.3%); type: cell-based, Cricetulus griseus; settings: chinese hamster
PC-3 [12] = assay: Induction of apoptosis in human PC3 cells assessed as cell rounding at IC50 incubated for 12 hrs by DAPI staining based confocal microscopy; type: functional
PC-3 [13] = assay: Induction of apoptosis in human PC3 cells assessed as plasma membrane blebbing at IC50 incubated for 6 hrs by scanning electron microscopy; type: functional, cell-based
[14] = Cell cycle arrest in human PC3 cells assessed as accumulation at subG1 phase at 15 uM after 12 hrs by propidium iodide staining based flow cytometry (reference value: 29.6%); type: functional; settings: PC-3
PC-3 [15] = assay: Induction of apoptosis in human PC3 cells assessed as increase in intracellular ROS level after 24 hrs using DCFH-DA by spectrofluorimetric analysis; type: functional, cell-based
CHO [16] = assay: Induction of apoptosis in CHO cells assessed as late apoptotic cells at 10 uM after 24 hrs by Annexin V-FITC/propidium iodide staining based flow cytometry (reference value: 1%); type: cell-based, Cricetulus griseus; settings: chinese hamster
[17] = Cell cycle arrest in human PC3 cells assessed as accumulation at subG1 phase after 12 hrs by propidium iodide staining based flow cytometry; type: functional; settings: PC-3
PC-3 [18] = assay: Induction of apoptosis in human PC3 cells assessed as smoothening of cell surface at IC50 incubated for 12 hrs by scanning electron microscopy; type: functional, cell-based
PC-3 [19] = assay: Induction of apoptosis in human PC3 cells assessed as decrease in cell size at IC50 incubated for 12 hrs by scanning electron microscopy; type: functional, cell-based
[20] = Cell cycle arrest in human PC3 cells assessed as accumulation at subG1 phase at 10 uM after 12 hrs by propidium iodide staining based flow cytometry (reference value: 29.6%); type: functional; settings: PC-3
PC-3 [21] = assay: Induction of apoptosis in human PC3 cells assessed as smoothening of cell surface at IC50 incubated for 6 hrs by scanning electron microscopy; type: functional, cell-based
[22] = Cell cycle arrest in human PC3 cells assessed as accumulation at subG1 phase at 2 uM after 12 hrs by propidium iodide staining based flow cytometry (reference value: 29.6%); type: functional; settings: PC-3

SMILES	IC50 [1] [µM]	IC50 (A549) [µM]	IC50 [2] [µM]	IC50 [3] [µM]	also measured
COc1cccc2c1C(=O)c1c(O)c3c(c(O)c1C2=O)C[C@@](O)(C(=O)CO)C[C@@H]3O[C@H]1C[C@H](N)[C@H](O)[C@H](C)O1 [DOXORUBICIN HYDROCHLORIDE]	0.01	–	–	–	–
CC1(C)CCC[C@@]2(C)C1=C[C@H]1C(=O)[C@H](c3ccccc3Br)[C@H]12	19	28	> 50	10	–
CO[C@@]12[C@H](COC(N)=O)C3=C(C(=O)C(C)=C(N)C3=O)N1C[C@@H]1N[C@@H]12 [MITOMYCIN]	–	–	0.2	0.5	–
Cc1ccccc1[C@H]1C(=O)[C@@H]2C=C3C(C)(C)CCC[C@]3(C)[C@H]12	> 50	28	> 50	> 50	–
CC1(C)CCC[C@@]2(C)C1=C[C@H]1C(=O)O[C@H](c3ccccc3F)[C@H]12	> 50	> 50	> 50	> 50	–
CC1(C)CCC[C@@]2(C)C1=C[C@H]1C(=O)[C@H](c3ccccc3Cl)[C@H]12	> 50	25	> 50	> 50	–
CC1(C)CCC[C@@]2(C)C1=C[C@H]1C(=O)O[C@H](c3ccccc3Br)[C@H]12	> 50	> 50	> 50	> 50	–
COc1ccccc1[C@H]1C(=O)[C@@H]2C=C3C(C)(C)CCC[C@]3(C)[C@H]12	12	10	8	10	Activity (PC-3 [4]): Active; Activity (CHO [5]): 37.6%; Activity (PC-3 [6]): Dose-dependent effect; Activity (PC-3 [7]): Active; Activity (PC-3 [8]): Active; Activity [9]: 45.2%; viability at 24 h, 10 µM [10]: 54.5%; Activity (CHO [11]): 1.1%; Activity (PC-3 [12]): Active; Activity (PC-3 [13]): Active; Activity [14]: 74.1%; Activity (PC-3 [15]): Dose-dependent effect; Activity (CHO [16]): 6.9%; Activity [17]: Dose-dependent effect; Activity (PC-3 [18]): Active; Activity (PC-3 [19]): Active; Activity [20]: 56.6%; Activity (PC-3 [21]): Active
CC[C@@]1(O)C(=O)OCc2c1cc1n(c2=O)Cc2cc3ccccc3nc2-1 [CAMPTOTHECIN]	–	–	–	–	Activity (CHO [5]): 21.6%; viability at 24 h, 10 µM [10]: 74.8%; Activity [22]: 60.9%; Activity (CHO [11]): 1.2%; Activity (CHO [16]): 2.4%
CC1(C)CCC[C@@]2(C)C1=C[C@H]1C(=O)[C@H](c3ccc(Cl)c(Cl)c3)[C@H]12	38	> 50	> 50	> 50	–
COc1ccccc1[C@H]1OC(=O)[C@@H]2C=C3C(C)(C)CCC[C@]3(C)[C@H]12	15	18	10	> 50	Activity (PC-3 [4]): Active; Activity (CHO [5]): 36.2%; Activity (PC-3 [6]): Dose-dependent effect; Activity (PC-3 [7]): Active; Activity (PC-3 [8]): Active; Activity [9]: 59.8%; viability at 24 h, 10 µM [10]: 56.8%; Activity (CHO [11]): 0.8%; Activity (PC-3 [12]): Active; Activity (PC-3 [13]): Active; Activity [14]: 77.5%; Activity (PC-3 [15]): Dose-dependent effect; Activity (CHO [16]): 6.1%; Activity (PC-3 [18]): Active; Activity (PC-3 [19]): Active; Activity [20]: 68.1%; Activity (PC-3 [21]): Active
O=c1[nH]cc(F)c(=O)[nH]1 [FLUOROURACIL]	–	0.5	–	–	–
CC1(C)CCC[C@@]2(C)C1=C[C@H]1C(=O)O[C@H](c3ccccc3Cl)[C@H]12	> 50	40	> 50	> 50	–
Cc1ccccc1[C@H]1OC(=O)[C@@H]2C=C3C(C)(C)CCC[C@]3(C)[C@H]12	> 50	23	21	> 50	–
CC1(C)CCC[C@@]2(C)C1=C[C@H]1C(=O)[C@H](c3ccccc3F)[C@H]12	17	36	> 50	18	–
CC1(C)CCC[C@@]2(C)C1=C[C@H]1C(=O)O[C@H](c3ccc(Cl)c(Cl)c3)[C@H]12	20	> 50	12	> 50	–
